Test results reported in PubChem BioAssay (NCI).
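Grown in 96-well plates, cells were treated for 48 hours with each compound at five concentrations. Insufficient inhibition: endpoint recorded as highest concentration tested. TGI: total growth inhibition.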

Experiments:
Test in all cases: NCI-60 cell line screen, 48 h
[1] = system: M14 melanoma
[2] = system: MALME-3M melanoma
[3] = system: NCI-H23 lung
[4] = system: LOX IMVI melanoma
[5] = system: T-47D breast
[6] = system: U251 CNS
[7] = system: RXF 393 renal
[8] = system: HCC-2998 colon
[9] = system: MOLT-4 leukemia
[10] = system: CAKI-1 renal
[11] = system: OVCAR-4 ovarian
[12] = system: IGROV1 ovarian
[13] = system: HOP-92 NSCLC
[14] = system: SF-268 CNS
[15] = system: NCI/ADR-RES ovarian
[16] = system: PC-3 prostate
[17] = system: SK-OV-3 ovarian
[18] = system: HCT-116 colon
[19] = system: SNB-19 CNS
[20] = system: COLO 205 colon
[21] = system: BT-549 breast
[22] = system: HOP-62 NSCLC
[23] = system: SK-MEL-2 melanoma
[24] = system: MDA-MB-435
[25] = system: EKVX NSCLC
[26] = system: HCT-15 colon
[27] = system: MDA-MB-231 breast
[28] = system: SNB-75 CNS
[29] = system: HS 578T breast
[30] = system: TK-10 renal
[31] = system: KM12 colon
[32] = system: ACHN renal
[33] = system: SK-MEL-5 melanoma
[34] = system: A549 NSCLC
[35] = system: DU-145 prostate
[36] = system: K-562 leukemia
[37] = system: RPMI-8226 leukemia
[38] = system: SW-620 colon
[39] = system: CCRF-CEM leukemia
[40] = system: UACC-257 melanoma
[41] = system: SF-539 CNS
[42] = system: NCI-H460 lung
[43] = system: NCI-H226 lung
[44] = system: MCF7 breast
[45] = system: SR leukemia
[46] = system: HL-60(TB) leukemia
[47] = system: SN12C renal
[48] = system: SK-MEL-28 melanoma
[49] = system: UO-31 renal
[50] = system: SF-295 CNS
[51] = system: NCI-H522 lung
[52] = system: A498 renal
[53] = system: 786-0 renal
[54] = system: UACC-62 melanoma
[55] = system: MDA-N
[56] = system: OVCAR-8 ovarian
[57] = system: OVCAR-5 ovarian
[58] = system: HT29 colon
[59] = system: OVCAR-3 ovarian

Fc1ccccc1N=c1oc2ccc(Br)cc2cc1-c1nc2ccccc2[nH]1
TGI [1]: 35.8 µM
TGI [2]: 14.9 µM
TGI [3]: 29.8 µM
TGI [4]: > 31.2 µM
TGI [5]: > 100 µM
TGI [6]: 20.1 µM
TGI [7]: 21.8 µM
TGI [8]: > 35.2 µM
TGI [9]: > 100 µM
TGI [10]: 35.8 µM
TGI [11]: > 37.3 µM
TGI [12]: > 42.1 µM
TGI [13]: 83.8 µM
TGI [14]: 21 µM
TGI [15]: 65.7 µM
TGI [16]: > 23.4 µM
TGI [17]: 32.9 µM
TGI [18]: > 31.8 µM
TGI [19]: 21.9 µM
TGI [20]: > 100 µM
TGI [21]: 26.7 µM
TGI [22]: 28.1 µM
TGI [23]: 26.6 µM
TGI [24]: > 64.6 µM
TGI [25]: > 41.5 µM
TGI [26]: > 100 µM
TGI [27]: 25.8 µM
TGI [28]: 4.74 µM
TGI [29]: 13.4 µM
TGI [30]: 17.2 µM
TGI [31]: > 54.9 µM
TGI [32]: 29.8 µM
TGI [33]: 35.7 µM
TGI [34]: 23.1 µM
TGI [35]: > 42.5 µM
TGI [36]: > 100 µM
TGI [37]: > 85.6 µM
TGI [38]: > 100 µM
TGI [39]: > 100 µM
TGI [40]: > 47.5 µM
TGI [41]: 4.58 µM
TGI [42]: > 76.6 µM
TGI [43]: 17.6 µM
TGI [44]: > 100 µM
TGI [45]: > 100 µM
TGI [46]: > 100 µM
TGI [47]: > 41.1 µM
TGI [48]: > 76.2 µM
TGI [49]: 20.5 µM
TGI [50]: 23.2 µM
TGI [51]: 6.82 µM
TGI [52]: 9.69 µM
TGI [53]: 8.5 µM
TGI [54]: 51.5 µM
TGI [55]: > 42.6 µM
TGI [56]: > 36.5 µM
TGI [57]: > 62.8 µM
TGI [58]: > 54.8 µM

O=C1C2=C(Nc3cc([N+](=O)[O-])ccc3N2)OC1c1c[nH]c2ccc(COc3ccccc3)cc12 (stereo unspecified)
TGI [1]: > 100 µM
TGI [2]: > 100 µM
TGI [3]: > 100 µM
TGI [4]: > 100 µM
TGI [5]: > 100 µM
TGI [6]: > 100 µM
TGI [7]: > 100 µM
TGI [8]: > 100 µM
TGI [9]: 40.4 µM
TGI [10]: > 100 µM
TGI [11]: > 100 µM
TGI [12]: > 100 µM
TGI [13]: > 100 µM
TGI [14]: > 100 µM
TGI [15]: > 100 µM
TGI [16]: > 100 µM
TGI [17]: > 100 µM
TGI [18]: > 100 µM
TGI [19]: > 100 µM
TGI [20]: 55.8 µM
TGI [21]: > 100 µM
TGI [22]: > 100 µM
TGI [59]: > 100 µM
TGI [23]: > 100 µM
TGI [24]: > 100 µM
TGI [25]: > 100 µM
TGI [26]: > 100 µM
TGI [27]: > 100 µM
TGI [28]: 65.9 µM
TGI [29]: > 100 µM
TGI [30]: > 100 µM
TGI [31]: > 100 µM
TGI [32]: > 100 µM
TGI [33]: > 100 µM
TGI [34]: > 100 µM
TGI [35]: > 100 µM
TGI [36]: > 100 µM
TGI [37]: > 100 µM
TGI [38]: > 100 µM
TGI [40]: > 100 µM
TGI [41]: > 100 µM
TGI [42]: > 100 µM
TGI [43]: > 100 µM
TGI [44]: > 100 µM
TGI [45]: > 100 µM
TGI [46]: 17.7 µM
TGI [47]: > 100 µM
TGI [48]: > 100 µM
TGI [49]: > 100 µM
TGI [50]: > 100 µM
TGI [51]: > 100 µM
TGI [52]: > 100 µM
TGI [53]: > 100 µM
TGI [54]: > 100 µM
TGI [55]: > 100 µM
TGI [56]: > 100 µM
TGI [57]: > 100 µM
TGI [58]: > 100 µM
